≈ marks a conversion by molar mass, not a printed value. Entries after “also recorded” stand apart in the source; their conditions may differ. Read-outs that look alike come from different tables or passages of the source.
Assays:
Salmonella enteritidis = experiment: MIC on agar plates (TSA); type: cell-based; conditions: TSA agar plate, aerobic, 48 hours at 30° C.; for MIC: Salmonella enterica, ENTERITIDIS, read-out: MIC, S. enteritidis
Pseudomonas aeruginosa = experiment: MIC on agar plates (TSA); type: cell-based; conditions: TSA agar plate, aerobic, 48 hours at 30° C.; for MIC: Pseudomonas aeruginosa, read-out: MIC, P. aeruginosa
[1] = test system: Bifidobacterium adolescentis; experiment: MIC on agar plates (RCBA); type: cell-based; conditions: RCBA agar plate, anaerobic, 72 hours at 30° C.; for MIC: Bifidobacterium adolescentis, read-out: MIC, B. adolescentis
Bifidobacterium spp. = experiment: MIC on agar plates (RCBA); type: cell-based; conditions: RCBA agar plate, anaerobic, 72 hours at 30° C.; for MIC: Bifidobacterium, read-out: MIC, Bif. spp.
Fusobacterium nucleatum = experiment: MIC on agar plates (RCBA); type: cell-based; conditions: for MIC: Fusobacterium nucleatum, read-out: MIC, F. nucleatum
Bacteroides fragilis = experiment: MIC on agar plates (RCBA); type: cell-based; conditions: RCBA agar plate, anaerobic, 72 hours at 30° C.; for MIC: Bacteroides fragilis, read-out: MIC, B. fragilis
Clostridium spp. = experiment: MIC on agar plates (RCBA); type: cell-based; conditions: for MIC: Clostridium, 72 h, read-out: MIC, C. spp.
Gram-positive bacteria = experiment: Antimicrobial activity on agar plates, summary for Gram-positive bacteria; type: cell-based
[2] = pig, in vivo
Description: (§1) Because the sphingolipids need to be transported together with the food to the small and large intestines to be able to be active there, the transport of phytosphingosine and sphinganine in the stomach and small intestine model TIM-1 was tested. Also, the transport of phytosphingosine in a fistulated pig was tested after the animal had been fed with feed containing phytosphingosine (1 wt. %). In a fistulated pig, the small intestine is uncoupled from the large intestine so that the digested feed at the end of the small intestine can be collected.
To investigate in an in vivo system whether sphingolipids from the food do actually arrive in the large intestine and are not prematurely absorbed or metabolized, pig basic feed to which phytosphingosine (1 wt. %) was added was fed to a fistulated pig.
The feed was prepared by mixing a solution of phytosphingosine in ethanol with the feed and drying it in vacuo. Every hour, the intestinal content (chymus) at the end of the small intestine was separately collected and frozen dry. The dry intestinal contents were then extracted with chloroform/methanol (2:1, v/v). The extracts were then filtered over glass wool and evaporated under a nitrogen flow. The residues were examined for the presence of phytosphingosine, sphingosine, sphinganine and sphingomyelin by means of LC-MS.

Listeria monocytogenes = experiment: MIC on agar plates (TSA); conditions: for MIC: Listeria monocytogenes, 48 h, read-out: MIC, L. monocytogenes; for MIC, L. monocytogenes: TSA agar plate, aerobic, 48 hours at 30° C.
[3] = test system: Streptococcus suis type 2; experiment: MIC on agar plates (TSA); conditions: for MIC: Streptococcus suis, TYPE2, 48 h, read-out: MIC, S. suis type 2; for MIC, S. suis type 2: TSA agar plate, aerobic, 48 hours at 30° C.
Bacillus cereus = experiment: MIC on agar plates (TSA); conditions: for MIC: Bacillus cereus, 48 h, read-out: MIC, B. cereus; for MIC, B. cereus: TSA agar plate, aerobic, 48 hours at 30° C.
Leuconostoc carnosum = experiment: MIC on agar plates (MRSA); conditions: for MIC: 72 h, read-out: MIC, L. carnosum; for MIC, L. carnosum: agar plate, anaerobic, 72 hours at 30° C.
Lactobacillus sake = experiment: MIC on agar plates (MRSA); conditions: for MIC: Latilactobacillus sakei, 72 h, read-out: MIC, L. sake; for MIC, L. sake: anaerobic, 72 hours at 30° C.
[4] = test system: Lactobacillus acidophilus; experiment: MIC on agar plates (MRSA); conditions: for MIC: Lactobacillus acidophilus, 72 h, read-out: MIC, L. acidophilus; for MIC, L. acidophilus: anaerobic, 72 hours at 30° C.
Lactobacillus casei = experiment: MIC on agar plates (MRSA); conditions: for MIC: Lacticaseibacillus casei, 72 h, read-out: MIC, L. casei; for MIC, L. casei: MRSA agar plate, anaerobic, 72 hours at 30° C.
Enterococcus hirae = experiment: MIC on agar plates (MRSA); conditions: for MIC: Enterococcus hirae, 72 h, read-out: MIC, E. hirae; for MIC, E. hirae: MRSA agar plate, anaerobic, 72 hours at 30° C.
Clostridium perfringens = experiment: microbe, parasite or virus in culture; type: cell-based; conditions: 72 h, read-out: MIC, C. perfringens
Clostridium difficile [5] = experiment: MIC on agar plates (RCBA); type: cell-based; conditions: Clostridioides difficile; RCBA agar plate, anaerobic, 72 hours at 30° C.
Clostridium difficile [6] = experiment: Survival in liquid ileum medium; type: cell-based; conditions: within 200 minutes
[7] = test system: Lactobacillus acidophilus; experiment: Antimicrobial activity in small intestine model TIM-1; type: cell-based; conditions: 20 μg/ml of sphingolipid; lumen samples plated on Rogosa agar
Clostridium difficile [8] = experiment: as above; type: cell-based; conditions: 20 μg/ml of sphingolipid; lumen samples plated on Clostridium difficile agar
[9] = type: in vitro ADME
Description: as §1
To investigate whether sphingolipids from the food are transported through the small intestine without being absorbed or being chemically or enzymatically modified in the small intestine, phytosphingosine and sphinganine were mixed in a standard Tim-1 food and exposed to a TIM-1 treatment. Of each sphingolipid, 5 mg per 100 grams of food (0.005 wt. %) in the food were tested. After starting the TIM-1 digestion processes in the TIM-1 stomach, at the fixed times, lumen samples of 100 grams were taken. Also, dialysate samples were taken from the material which was transported through the semi-permeable TIM-1 membrane. The dialysate samples varied between 1428 and 1122 grams. […] Next to the samples, the exposure time in minutes is given.

[10] = test system: Lactobacillus acidophilus; experiment: Survival in liquid ileum medium; conditions: within 200 minutes
bacteria tested = experiment: Antimicrobial activity on agar plates, summary for the bacteria tested; type: cell-based
[11] = RCBA agar plate, anaerobic, 72 hours at 30° C.
[12] = ileum medium, absence of bile, 10 and 50 μg/ml
[13] = 60 min, 5 mg per 100 grams of food
[14] = 120 min, 5 mg per 100 grams of food
[15] = 180 min, 5 mg per 100 grams of food
[16] = 240 min, 5 mg per 100 grams of food

Compound: CCCCCCCCCCCCC/C=C/[C@@H](O)[C@@H](N)CO [Sphingosine, sphingosine]
- MIC (Salmonella enteritidis): > 731 µg/mL
- MIC (Pseudomonas aeruginosa): > 731 µg/mL
- MIC [1]: < 6.3 µg/mL
- MIC (Bifidobacterium spp.): < 6.3 µg/mL
- MIC (Fusobacterium nucleatum; [11]): < 6.3 µg/mL
- MIC (Bacteroides fragilis): < 6.3 µg/mL
- MIC (Clostridium spp.): < 6.3 µg/mL
- Antimicrobial activity against Gram-positive bacteria (Gram-positive bacteria): killed; also recorded: strong antimicrobial activity
- Presence in the intestinal contents at the end of the small intestine [2]: No sphingosine could be demonstrated
- MIC (Listeria monocytogenes): < 6.3 µg/mL
- MIC [3]: < 6.3 µg/mL
- MIC (Bacillus cereus): < 6.3 µg/mL
- MIC (Leuconostoc carnosum): < 6.3 µg/mL
- MIC (Lactobacillus sake): < 6.3 µg/mL
- MIC [4]: < 6.3 µg/mL
- MIC (Lactobacillus casei): < 6.3 µg/mL
- MIC (Enterococcus hirae): 84 µg/mL (≈ 280 µM)

Compound: CC(=O)O.CCCCCCCCCCCCCCC[C@@H](O)[C@@H](N)CO [Sphinganine, sphinganine acetate]
- MIC (Salmonella enteritidis): > 731 µg/mL
- MIC (Pseudomonas aeruginosa): > 731 µg/mL
- MIC [1]: > 73 µg/mL
- MIC (Bifidobacterium spp.): 0.9 µg/mL
- MIC (Fusobacterium nucleatum; 72 h): > 731 µg/mL
- MIC (Bacteroides fragilis): 0.3 µg/mL
- MIC (Clostridium perfringens): > 36.5 µg/mL
- MIC (Clostridium difficile [5]): > 73 µg/mL
- MIC (Clostridium spp.): > 73 µg/mL
- Antimicrobial activity against Gram-positive bacteria (Gram-positive bacteria; agar plates, acetate): killed; also recorded: strong antimicrobial activity
- Killing of Clostridium difficile (Clostridium difficile [6]; [12]): virtually completely killed
- Killing of Clostridium difficile (Clostridium difficile [6]; liquid cultures, 50 ppm): for the larger part killed
- Antimicrobial activity against Lactobacillus acidophilus in TIM-1 [7]: no demonstrable antimicrobial activity
- Antimicrobial activity against Clostridium difficile in TIM-1 (Clostridium difficile [8]): no demonstrable antimicrobial activity
- Transport through the TIM-1 system [9]: transported to the large intestine to a sufficient extent
- Concentration in TIM-1 sample: Dialysate ileum 0-120′ ([9]; 5 mg per 100 grams of food): 0 ng/mL
- Concentration in TIM-1 sample: Dialysate ileum 120-240′ ([9]; 5 mg per 100 grams of food): 0 ng/mL
- Concentration in TIM-1 sample: Dialysate jejunum 0-120′ ([9]; 5 mg per 100 grams of food): 0 ng/mL
- Concentration in TIM-1 sample: Dialysate jejunum 120-240′ ([9]; 5 mg per 100 grams of food): 0 ng/mL
- Concentration in TIM-1 sample: Food ([9]; 5 mg per 100 grams of food): 19360 ng/mL
- Concentration in TIM-1 sample: Residue jejunum/ileum + dialysis fluid ([9]; 5 mg per 100 grams of food): 8620 ng/mL
- Concentration in TIM-1 sample: Residue stomach/duodenum + dialysis fluid ([9]; 5 mg per 100 grams of food): 2730 ng/mL
- Share of the amount used found in the samples (rough mass balance) ([9]; 5 mg per 100 grams of food): approx. 20%
- Concentration in TIM-1 sample: Lumen ileum 60′ [9, 13]: 740 ng/mL
- Concentration in TIM-1 sample: Lumen jejunum 60′ [9, 13]: 8750 ng/mL
- Concentration in TIM-1 sample: Lumen ileum 120′ [9, 14]: 4520 ng/mL
- Concentration in TIM-1 sample: Lumen jejunum 120′ [9, 14]: 11510 ng/mL
- Concentration in TIM-1 sample: Lumen ileum 180′ [9, 15]: 5300 ng/mL
- Concentration in TIM-1 sample: Lumen jejunum 180′ [9, 15]: 12470 ng/mL
- Concentration in TIM-1 sample: Lumen ileum 240′ [9, 16]: 7910 ng/mL
- Concentration in TIM-1 sample: Lumen jejunum 240′ [9, 16]: 10460 ng/mL
- Presence in the intestinal contents at the end of the small intestine [2]: small amounts
- MIC (Listeria monocytogenes): < 6.3 µg/mL
- MIC [3]: < 6.3 µg/mL
- MIC (Bacillus cereus): < 6.3 µg/mL
- MIC (Leuconostoc carnosum): < 0.3 µg/mL
- MIC (Lactobacillus sake): > 70 µg/mL
- MIC [4]: 222 µg/mL
- MIC (Lactobacillus casei): 246 µg/mL
- MIC (Enterococcus hirae): > 731 µg/mL
- Killing of Lactobacillus acidophilus [10, 12]: virtually completely killed
- Killing of Lactobacillus acidophilus ([10]; liquid cultures, 50 ppm): for the larger part killed

Compound: glucosylceramide III
- MIC, S. enteritidis (Salmonella enteritidis): >365 µg/mL
- MIC, P. aeruginosa (Pseudomonas aeruginosa): >365 µg/mL
- MIC, B. adolescentis [1]: >365 µg/mL
- MIC, Bif. spp. (Bifidobacterium spp.): >365 µg/mL
- MIC, F. nucleatum (Fusobacterium nucleatum; [11]): >365 µg/mL
- MIC, B. fragilis (Bacteroides fragilis): >365 µg/mL
- MIC, C. spp. (Clostridium spp.): >365 µg/mL
- Inhibition of the bacteria tested (bacteria tested): do not inhibit any of the bacteria tested
- MIC, L. monocytogenes (Listeria monocytogenes): >365 µg/mL
- MIC, S. suis type 2 [3]: >365 µg/mL
- MIC, B. cereus (Bacillus cereus): >365 µg/mL
- MIC, L. carnosum (Leuconostoc carnosum): >365 µg/mL
- MIC, L. sake (Lactobacillus sake): >365 µg/mL
- MIC, L. acidophilus [4]: >365 µg/mL
- MIC, L. casei (Lactobacillus casei): >365 µg/mL
- MIC, E. hirae (Enterococcus hirae): >365 µg/mL

Compound: CCCCCCCCCCCCC/C=C/[C@@H](O)[C@@H](N)COP(=O)([O-])OCC[N+](C)(C)C [Lysosphingomyelin, lysosphingomyelin]
- MIC, S. enteritidis (Salmonella enteritidis): >365 µg/mL
- MIC, P. aeruginosa (Pseudomonas aeruginosa): >365 µg/mL
- MIC, B. adolescentis [1]: <3.1 µg/mL
- MIC, Bif. spp. (Bifidobacterium spp.): 10 µg/mL (≈ 21.5 µM)
- MIC, F. nucleatum (Fusobacterium nucleatum; [11]): >365 µg/mL
- MIC, B. fragilis (Bacteroides fragilis): 11.4 µg/mL (≈ 24.5 µM)
- MIC, C. spp. (Clostridium spp.; [11]): <3.1 µg/mL
- Antimicrobial activity against Gram-positive bacteria (Gram-positive bacteria; agar plates): killed; also recorded: strong antimicrobial activity
- MIC, L. monocytogenes (Listeria monocytogenes): <3.1 µg/mL
- MIC, S. suis type 2 [3]: <3.1 µg/mL
- MIC, B. cereus (Bacillus cereus): <3.1 µg/mL
- MIC, L. carnosum (Leuconostoc carnosum): <3.1 µg/mL
- MIC, L. sake (Lactobacillus sake): 20 µg/mL (≈ 43 µM)
- MIC, L. acidophilus [4]: 16.6 µg/mL (≈ 35.7 µM)
- MIC, L. casei (Lactobacillus casei): >365 µg/mL
- MIC, E. hirae (Enterococcus hirae): >365 µg/mL

From patent US8703172B2, “Sphingolipids for improvement of the composition of the intestinal flora” (Nederlandse Organizatie voor …, priority 2003, dated 2014)
